Source: patent publication US20090186009A1, “SOLID MATTER CONTAINING COENZYME Q” (Kaneka Corporation, priority 2006, published 2009)

Experiment: Crystallization rate of coenzyme Q10 in granule by differential scanning calorimetric analysis
Assay type: physicochemical
Conditions: DSC, calculated from melting heat (ΔH); 20° C.→80° C. (5° C./min)→−50° C.
Description: Calorimetric analysis of coenzyme Q10 granules obtained in Example 1 and Example 4 and oxidized coenzyme Q10 powder (Kaneka-coenzyme Q10) used as the starting material in Preparation Examples 1-3 by a differential scanning calorimetric analyzer (manufactured by SII; EXSTAR6000 DSC6220) was performed under the following conditions. The crystallization rate was calculated from the measurement value of the melting heat (ΔH).
Analysis conditions; 20° C.→80° C. (5° C./min)→−50° C. (−5° C./min)

crystallinity degree: 100%
Compound: COC1=C(OC)C(=O)C(C/C=C(\C)CC/C=C(\C)CC/C=C(\C)CC/C=C(\C)CC/C=C(\C)CC/C=C(\C)CC/C=C(\C)CC/C=C(\C)CC/C=C(\C)CCC=C(C)C)=C(C)C1=O [Kaneka coenzyme Q10, oxidized coenzyme Q10]
